Key:
[1] = system: HBV; experiment: HBV-DNA antiviral assay using HepG2.117 cells (intracellular HBV DNA by qPCR); type: cell-based, genotype D HBV; details: Hepatitis B virus, 72 h, HBV DNA inhibition, 3 days incubation
Protocol: (§1) The following assay procedure describes the HBV antiviral assay, using HepG2.117 cells, which carry a stably integrated genotype D HBV genome under the control of a Tet-off promoter, and intracellular HBV DNA quantification as endpoint. Cell viability is assessed in parallel by measuring the intracellular ATP content using CellTiter-Glo 2.0 (Promega).
(§2) On day 0, HepG2.117 cells (which are maintained in routine cell culture with doxycycline present in the medium at a final concentration of 1 μg/mL) are seeded in 96-well plates (white with clear bottom) at a density of 2.0×10^4 cells/well (0.1 mL/well) in medium without doxycycline to induce pgRNA transcription and subsequent formation of HBV particles. The cells are incubated at 37° C. and 5% CO2.
(§3) On day 1, medium is removed from each well, the test articles are diluted in culture medium without doxcycyline and 100 μL was added to cell culture wells (9 concentrations, 4-fold dilution). For each plate, 6 untreated (merely DMSO) wells are included. The final concentration of DMSO in the culture medium is 2%. Each plate is prepared in duplicate (one for HBV DNA extraction, one for CellTiter-Glo 2.0 measurement). The cells are incubated at 37° C. and 5% CO2 for 3 days.
(§4) On day 4, cell viability is assessed using CellTiter-Glo 2.0 and cell lysates are prepared for HBV DNA extraction and subsequent quantification by qPCR.
Medium is removed from each well and 100 μL of 0.33% NP-40 in H2O was added to each well. Plates are sealed, incubated at 4° C. for 5 mins, vortexed extensively and centrifuged briefly. Next, 35 μL of lysate is added to 65 μL QuickExtract DNA Extraction Solution (Epicentre) in a PCR plate for each well. PCR plate is incubated at 65° C. for 6 mins, 98° C. for 2 mins and finally cooled to 4° C. HBV DNA is then quantified by qPCR with HBV-specific primers and probes as specified in Table 2 using the Bio-Rad SSOAdvanced Universal Probes Supermix on a CFX96 machine (Bio-Rad). The PCR cycle program consisted of 95° C. for 3 mins, followed by 40 cycles at 95° C. for 10 sec and 60° C. for 30 sec.
A DNA standard is prepared by dilution of an IDT gBlock corresponding to the amplicon with concentrations ranging from 10^2 to 10^8 copies/input (i.e., per 4 μL) and used to generate a standard curve by plotting Cq values vs. HBV DNA standard concentration. The quantity of HBV DNA in each sample is determined by interpolating from the standard curve.
(§5) Cell viability is calculated as follows: % Cell viability=(luminescence value of test sample)/(average luminescence value of 2% DMSO control)×100%. HBV DNA inhibition was calculated as follows: 100−(HBV DNA copy number of test sample)/(average HBV DNA copy number of 2% DMSO control)×100%. No normalization to entecavir is required due to the excellent dynamic window of this assay. The CC50, EC50 and EC90 values were determined by dose-response curves fitted using non-linear regression.

[2] = Cell viability by CellTiter-Glo 2.0 (intracellular ATP) in HepG2.117 cells; type: cell-based; details: human, CellTiter-Glo 2.0, 3 days incubation
Protocol: as §1, §2, §3, §4
Using the other plates, the cell viability is quantified by CellTiter-Glo 2.0 according to the manufacturer's manual. In brief, 100 μL of reagent solution is added to the culture plates and shaken for 2′. The plates are incubated at rt for 10 min and luminescence signal is subsequently measured on a VarioSkan Lux (ThermoFisher) plate reader.
as §5

Row | SMILES | EC50 [1] [nM] | CC50 at 3 days [2] [nM]
1 | CNC(=O)c1ccc(-n2c(-n3nc(C#N)cc3C)nc3c(c2=O)C[C@@H](C)N(C(=O)c2ccc(Br)c(C(F)(F)F)c2)C3)cc1 [Compound 1, (R)-4-(7-(4-bromo-3-(trifluoromethyl)benzoyl)-2-(3-cyano-5-methyl-1H-pyrazol-1-yl)-6-methyl-4-oxo-5,6,7,8-tetrahydropyrido[3,4-d]pyrimidin-3(4H)-yl)-N-methylbenzamide] | ≤ 50 | > 50000
2 | CNC(=O)c1ccc(-n2c(-n3nc(C)cc3C#N)nc3c(c2=O)C[C@@H](C)N(C(=O)c2ccc(Br)c(C(F)(F)F)c2)C3)cc1 [Compound 2, (R)-4-(7-(4-bromo-3-(trifluoromethyl)benzoyl)-2-(5-cyano-3-methyl-1H-pyrazol-1-yl)-6-methyl-4-oxo-5,6,7,8-tetrahydropyrido[3,4-d]pyrimidin-3(4H)-yl)-N-methylbenzamide] | ≤ 50 | 29200
3 | CNC(=O)c1ccc(-n2c(-n3nc(C4CC4)cc3C)nc3c(c2=O)C[C@@H](C)N(C(=O)c2ccc(Br)c(C(F)(F)F)c2)C3)cc1 [Compound 3, (R)-4-(7-(4-bromo-3-(trifluoromethyl)benzoyl)-2-(3-cyclopropyl-5-methyl-1H-pyrazol-1-yl)-6-methyl-4-oxo-5,6,7,8-tetrahydropyrido[3,4-d]pyrimidin-3(4H)-yl)-N-methylbenzamide] | ≤ 50 | > 50000
4 | CCc1cc(CC)n(-c2nc3c(c(=O)n2-c2ccc(C(=O)NC)cc2)C[C@@H](C)N(C(=O)c2ccc(Br)c(C(F)(F)F)c2)C3)n1 [Compound 4] | ≤ 50 | > 50000
5 | CNC(=O)c1ccc(-n2c(-n3nc(C(F)(F)F)cc3C)nc3c(c2=O)C[C@@H](C)N(C(=O)c2ccc(Br)c(C(F)(F)F)c2)C3)cc1 [Compound 5] | ≤ 50 | > 500
6 | CNC(=O)c1ccc(-n2c(-n3nc(C(C)(C)C)cc3C)nc3c(c2=O)C[C@@H](C)N(C(=O)c2ccc(Br)c(C(F)(F)F)c2)C3)cc1 [Compound 6] | ≤ 50 | 41800
7 | CNC(=O)c1ccc(-n2c(-n3nc(C(C)C)cc3C)nc3c(c2=O)C[C@@H](C)N(C(=O)c2ccc(Br)c(C(F)(F)F)c2)C3)cc1 [Compound 7] | ≤ 50 | > 50000
8 | CNC(=O)c1ccc(-n2c(-n3nc(C)cc3C(C)C)nc3c(c2=O)C[C@@H](C)N(C(=O)c2ccc(Br)c(C(F)(F)F)c2)C3)cc1 [Compound 8] | ≤ 50 | > 50000
9 | CNC(=O)c1ccc(-n2c(-n3nc(C)c(C)c3C)nc3c(c2=O)C[C@@H](C)N(C(=O)c2ccc(Br)c(C(F)(F)F)c2)C3)cc1 [Compound 9] | 50 to 500 | > 5000
10 | CNC(=O)c1ccc(-n2c(-n3cc4c(n3)CCCC4)nc3c(c2=O)C[C@@H](C)N(C(=O)c2ccc(Br)c(C(F)(F)F)c2)C3)cc1 [Compound 10] | ≤ 50 | > 50000
11 | CNC(=O)c1ccc(-n2c(-n3nc(C(=O)N(C)C)cc3C)nc3c(c2=O)C[C@@H](C)N(C(=O)c2ccc(Br)c(C(F)(F)F)c2)C3)cc1 [Compound 11] | 50 to 500 | > 50000
12 | [2H]c1c(C)nn(-c2nc3c(c(=O)n2-c2ccc(C(=O)NC)cc2)C[C@@H](C)N(C(=O)c2ccc(Br)c(C(F)(F)F)c2)C3)c1C [Compound 12] | ≤ 50 | > 50000

Source: patent US12384779B2, “Bicyclic compounds” (Aligos Therapeutics, Inc., priority 2022, dated 2025)
